Reference: PMC4079544, “A Linear Relationship between Crystal Size and Fragment Binding Time Observed Crystallographically: Implications for Fragment Library Screening Using Acoustic Droplet Ejection” (PLoS ONE, 2014)

Target: T1, Lysozyme (Gallus gallus, UniProt P00698)
T1 construct: gene LYZ
Assay: X-ray crystallography of soaked crystals ([…] data sets), ligand occupancy vs soak time; Kd^cryst from fitted Omax
Format: binding

T1 sequence (P00698 19-147): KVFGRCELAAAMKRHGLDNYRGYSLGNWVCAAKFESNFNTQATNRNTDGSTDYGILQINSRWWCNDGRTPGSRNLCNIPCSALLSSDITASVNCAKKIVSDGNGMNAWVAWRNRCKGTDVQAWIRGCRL

Q: With `CC(=O)N[C@H]1C(O)O[C@H](CO)[C@@H](O)[C@@H]1O` (stereo partly shown) [NAG, N-acetyl glucosamine] as the molecule, how does the Kd read?
A: 5.4 mM
